ChEMBL document CHEMBL1130738, “Rational design of boropeptide thrombin inhibitors: beta, beta-dialkyl-phenethylglycine P2 analogs of DuP 714 with greater selectivity over complement factor I and an improved safety profile” (Bioorg Med Chem Lett, 1998)
Calls of active or inactive are those of the source. No cut-off for these calls is given here.

Assays:
[1] = Selectivity ratio for binding to factor I (IC50) and thrombin (Ki)
[2] = molecular target: Thrombin and coagulation factor X (Homo sapiens) (UniProt P00734+P00742); assay: Selectivity ratio for binding to factor Xa (Ki) and thrombin (Ki); format: protein assay
Chain of Thrombin and coagulation factor X (Homo sapiens) (P00742 whole entry, looked up, other chains not shown): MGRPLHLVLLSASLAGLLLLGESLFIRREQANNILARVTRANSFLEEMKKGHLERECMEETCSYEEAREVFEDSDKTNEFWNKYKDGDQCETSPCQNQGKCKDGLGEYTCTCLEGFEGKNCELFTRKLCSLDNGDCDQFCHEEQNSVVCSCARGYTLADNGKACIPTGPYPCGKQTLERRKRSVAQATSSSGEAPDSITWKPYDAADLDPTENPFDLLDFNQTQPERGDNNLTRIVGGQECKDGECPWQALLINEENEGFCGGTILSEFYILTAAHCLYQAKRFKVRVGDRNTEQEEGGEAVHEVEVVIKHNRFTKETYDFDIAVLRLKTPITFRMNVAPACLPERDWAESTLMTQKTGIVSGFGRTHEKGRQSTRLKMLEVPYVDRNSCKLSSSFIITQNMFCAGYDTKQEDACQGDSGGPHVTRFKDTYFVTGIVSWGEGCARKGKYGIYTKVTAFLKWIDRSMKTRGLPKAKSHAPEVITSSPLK

[3] = molecular target: Prothrombin (Homo sapiens, UniProt P00734); assay: Binding affinity towards thrombin was tested.
[4] = molecular target: Coagulation factor X (Homo sapiens, UniProt P00742); assay: Binding affinity towards coagulation factor Xa.
Chain of Coagulation factor X (P00742 41-179 limits assumed): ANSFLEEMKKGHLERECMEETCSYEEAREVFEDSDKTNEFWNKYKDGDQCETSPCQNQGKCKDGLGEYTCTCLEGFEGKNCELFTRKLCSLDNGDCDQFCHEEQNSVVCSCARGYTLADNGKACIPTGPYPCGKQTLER
Chain of Coagulation factor X (P00742 235-488 limits assumed): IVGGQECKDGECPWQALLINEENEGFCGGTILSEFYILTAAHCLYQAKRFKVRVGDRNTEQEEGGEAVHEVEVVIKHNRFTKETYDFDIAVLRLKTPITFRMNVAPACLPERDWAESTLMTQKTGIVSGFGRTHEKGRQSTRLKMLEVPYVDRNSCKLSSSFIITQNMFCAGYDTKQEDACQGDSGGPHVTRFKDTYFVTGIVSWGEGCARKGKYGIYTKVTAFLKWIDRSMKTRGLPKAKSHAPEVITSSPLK

[5] = Inhibition of Coagulation factor I.
[6] = test system: Rattus norvegicus; assay: Alanine transaminase level was measured in rats after administration intravenously at a dose(bolus) of 20 umol/kg; format: functional, organism-based; parameters: unit not given here
[7] = test system: Rattus norvegicus; assay: Effect of factor I selectivity on hypotension was evaluated in rats after administration intravenously at a dose(bolus) of 2 umol/kg; format: functional
[8] = test system: Rattus norvegicus; assay: Effect of factor I selectivity on hypotension was evaluated in rats after administration intravenously at a dose(bolus) of 20umol/Kg, activity expressed as drop in blood pressure; No effect; format: functional, organism-based
[9] = test system: Rattus norvegicus; assay: Effect of factor I selectivity on hypotension was evaluated in rats after administration intravenously at a dose(bolus) of 20umol/Kg, activity expressed as drop in blood pressure; format: functional

Structure (SMILES) | Ratio [1] | Ratio [2] | Ki [3] [nM] | Ki [4] [nM] | IC50 [5] [nM] | Level [6] | BP [7] [mmHg] | BP [8] | BP [9] [mmHg]
Cc1cc(C)cc(C(C)(C)CN(CC(=O)NC(CCCN=C(N)N)B(O)O)C(=O)CCc2ccccc2)c1 (stereo unspecified) | 1070 | 207 | 0.3 | 62 | 320 |  |  |  | 
Cc1cc(C)cc(C(C)(C)CN(CC(=O)NC(CCCCN)B(O)O)C(=O)CCc2ccccc2)c1 (stereo unspecified) | 5980 | 1980 | 0.41 | 810 | 2450 | 78 |  |  | 
N/C=N/CCCC(NC(=O)CN(CC1(c2ccccc2)CCCC1)C(=O)CCc1ccccc1)B(O)O (stereo unspecified) | > 16700 | 210 |  |  | > 50000 | 60 |  |  | 
Cc1cc(C)cc(C(C)(C)CN(CC(=O)NC(CCC/N=C/N)B(O)O)C(=O)CCc2ccccc2)c1 (stereo unspecified) | 4510 | 740 | 0.53 | 392 | 2390 | 70 |  |  | 
Cc1cc(C)cc(CCN(CC(=O)NC(CCC/N=C/N)B(O)O)C(=O)CCc2ccccc2)c1 (stereo unspecified) | 1080 | 81 |  |  | 400 |  |  |  | 
CC(=O)N[C@H](Cc1ccccc1)C(=O)N1CCC[C@H]1C(=O)N[C@@H](CCCN=C(N)N)B(O)O.Cl |  |  |  |  | 10 |  | >40 |  | 
N=CNCCCC(NC(=O)CN(CC1(c2ccccc2)CCCC1)C(=O)CCc1ccccc1)B(O)O (stereo unspecified) |  |  | 3 | 630 |  |  |  |  | 
Cc1cc(C)cc(CCN(CC(=O)NC(CCCN=C(N)N)B(O)O)C(=O)CCc2ccccc2)c1 (stereo unspecified) | < 69 | 26 |  |  | < 40 |  |  |  | 
Cc1cc(C)cc(CCN(CC(=O)NC(CCCNC(=N)N)B(O)O)C(=O)CCc2ccccc2)c1 (stereo unspecified) |  |  | 0.58 | 15 |  |  |  |  | 
Cc1cc(C)cc(CCN(CC(=O)NC(CCCNC=N)B(O)O)C(=O)CCc2ccccc2)c1 (stereo unspecified) |  |  | 0.37 | 30 |  |  |  |  | 

More lines, main results first:

Ratio [1] | Ratio [2] | Ki [3] [nM] | Ki [4] [nM] | IC50 [5] [nM] | Level [6] | Structure (SMILES) | BP [7] [mmHg] | BP [8] | BP [9] [mmHg]
3570 | 310 | 0.42 | 130 | 1500 | 60 | NCCCCC(NC(=O)CN(CCc1ccccc1)C(=O)CCc1ccccc1)B(O)O (stereo unspecified) |  |  | 
3070 | 25 |  |  | 2730 | 55 | N/C=N/CCCC(NC(=O)CN(CCc1ccccc1)C(=O)CCc1ccccc1)B(O)O (stereo unspecified) |  |  | 
 |  | 0.83 | 300 |  |  | N=CNCCCC(NC(=O)CN(CC1(c2ccccc2)CC1)C(=O)CCc1ccccc1)B(O)O (stereo unspecified) |  |  | 
 |  | 0.89 | 22 |  |  | N=CNCCCC(NC(=O)CN(CCc1ccccc1)C(=O)CCc1ccccc1)B(O)O (stereo unspecified) |  |  | 
10000 | 1020 | 0.43 | 438 | 4300 | 60 | NCCCCC(NC(=O)CN(CC1(c2ccccc2)CC1)C(=O)CCc1ccccc1)B(O)O (stereo unspecified) |  |  | 
7920 | 579 | 2.4 | 1390 | 19000 | 66 | NCCCCC(NC(=O)CN(CC1(c2ccccc2)CCCC1)C(=O)CCc1ccccc1)B(O)O (stereo unspecified) |  |  | 
9280 | 361 |  |  | 7700 | 66 | N/C=N/CCCC(NC(=O)CN(CC1(c2ccccc2)CC1)C(=O)CCc1ccccc1)B(O)O (stereo unspecified) |  |  | 
607 | 193 | 0.28 | 54 | 170 |  | Cc1cc(C)cc(CCN(CC(=O)NC(CCCCN)B(O)O)C(=O)CCc2ccccc2)c1 (stereo unspecified) |  |  | 
9000 | 767 | 0.06 | 46 | 540 | 89 | N=C(N)NCCCC(NC(=O)CN(CC1(c2ccccc2)CC1)C(=O)CCc1ccccc1)B(O)O (stereo unspecified) |  | inactive | 
 |  | 1.2 | 80 |  |  | CC(C)(CN(CC(=O)NC(CCCNC=N)B(O)O)C(=O)CCc1ccccc1)c1ccccc1 (stereo unspecified) |  |  | 
3610 | 889 | 0.36 | 320 | 1300 | 53 | CC(C)(CN(CC(=O)NC(CCCCN)B(O)O)C(=O)CCc1ccccc1)c1ccccc1 (stereo unspecified) |  |  | 
 |  | 0.06 | 99 |  |  | CC(C)(CN(CC(=O)NC(CCCNC(=N)N)B(O)O)C(=O)CCc1ccccc1)c1ccccc1 (stereo unspecified) |  |  | 
2170 | 1650 |  |  | 130 | 211 | CC(C)(CN(CC(=O)NC(CCCN=C(N)N)B(O)O)C(=O)CCc1ccccc1)c1ccccc1 (stereo unspecified) |  |  | >40
5750 | 67 |  |  | 6900 | 70 | CC(C)(CN(CC(=O)NC(CCC/N=C/N)B(O)O)C(=O)CCc1ccccc1)c1ccccc1 (stereo unspecified) |  |  | 
